Assays:
Test in all cases: relative viability (nuclei count vs DMSO), 5 days (fraction); higher = more cells survive
NCI-H1651 = tested on: NCI-H1651
Outline: (§1)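 The day after seeding in 1536-well plates, lung cancer cell lines were treated by pin tool with a single drug, or with a fixed anchor-drug dose together with five library-drug doses (not always all listed) in √10 steps. After 5 days, a combined fix-and-stain solution (final 0.05% Triton X-100, 1% formaldehyde, 1 ug/ml Hoechst) was added. Nuclei counted on 4× images gave relative viability as treated counts over vehicle counts, reported as the median of duplicate plates.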

EPLC-272H = tested on: EPLC-272H
Outline: as §1

LC-2-ad = tested on: LC-2-ad
Outline: as §1

NCI-H1395 = tested on: NCI-H1395
Outline: as §1

NCI-H2087 = tested on: NCI-H2087
Outline: as §1

LU99A = tested on: LU99A
Outline: as §1

ABC-1 = tested on: ABC-1
Outline: as §1

CAL-12T = tested on: CAL-12T
Outline: as §1

NCI-H1755 = tested on: NCI-H1755
Outline: as §1

HCC-366 = tested on: HCC-366
Outline: as §1

LOU-NH91 = tested on: LOU-NH91
Outline: as §1

NCI-H1793 = tested on: NCI-H1793
Outline: as §1

`COc1cc(N2CCC(C(N)=O)CC2)ccc1Nc1nc(N)c(Cl)c(Nc2ccccc2S(=O)(=O)C(C)C)n1` [HG-5-88-01] + CS(=O)(=O)CCNCc1ccc(-c2ccc3ncnc(Nc4ccc(OCc5cccc(F)c5)c(Cl)c4)c3c2)o1 [Lapatinib] (partner 2 µM) showed a relative viability (NCI-H1651; first compound 0.1265 µM) of 1, a relative viability (NCI-H1651; first compound 0.4 µM) of 0.796 and a relative viability (NCI-H1651; first compound 1.265 µM) of 0.863. The relative viability (NCI-H1651; first compound 4 µM) was 0.882, the relative viability (EPLC-272H; first compound 0.04 µM) was 0.871 and the relative viability (EPLC-272H; first compound 0.1265 µM) was 0.952. For the same molecule, the relative viability (EPLC-272H; first compound 0.4 µM) was 0.994, the relative viability (EPLC-272H; first compound 1.265 µM) was 0.949 and the relative viability (EPLC-272H; first compound 4 µM) was 0.0809. It also gave a relative viability (LC-2-ad; first compound 0.04 µM) of 0.993, a relative viability (LC-2-ad; first compound 0.1265 µM) of 1.02 and a relative viability (LC-2-ad; first compound 0.4 µM) of 0.876. For the same molecule, the relative viability (LC-2-ad; first compound 1.265 µM) was 0.908, the relative viability (LC-2-ad; first compound 4 µM) was 0.629 and the relative viability (NCI-H1395; first compound 0.04 µM) was 0.933. The relative viability (NCI-H1395; first compound 0.1265 µM) was 1, the relative viability (NCI-H1395; first compound 0.4 µM) was 1.12 and the relative viability (NCI-H1395; first compound 1.265 µM) was 1.05. For the same molecule, the relative viability (NCI-H1395; first compound 4 µM) was 0.83, the relative viability (NCI-H2087; first compound 0.04 µM) was 1.01 and the relative viability (NCI-H2087; first compound 0.1265 µM) was 0.988. The relative viability (NCI-H2087; first compound 0.4 µM) was 0.989, the relative viability (NCI-H2087; first compound 1.265 µM) was 0.899 and the relative viability (NCI-H2087; first compound 4 µM) was 0.735. It also gave a relative viability (LU99A; first compound 0.04 µM) of 1.03, a relative viability (LU99A; first compound 0.1265 µM) of 1.02 and a relative viability (LU99A; first compound 0.4 µM) of 1. It also gave a relative viability (LU99A; first compound 1.265 µM) of 0.988, a relative viability (LU99A; first compound 4 µM) of 0.721 and a relative viability (ABC-1; first compound 0.04 µM) of 1.2. For the same molecule, the relative viability (ABC-1; first compound 0.1265 µM) was 1.12, the relative viability (ABC-1; first compound 0.4 µM) was 0.996 and the relative viability (ABC-1; first compound 1.265 µM) was 0.624. For the same molecule, the relative viability (ABC-1; first compound 4 µM) was 1.32, the relative viability (CAL-12T; first compound 0.04 µM) was 0.618 and the relative viability (CAL-12T; first compound 0.1265 µM) was 0.698. The relative viability (CAL-12T; first compound 0.4 µM) was 0.641, the relative viability (CAL-12T; first compound 1.265 µM) was 0.32 and the relative viability (CAL-12T; first compound 4 µM) was 0.359. The relative viability (NCI-H1755; first compound 0.1265 µM) was 1.04, the relative viability (NCI-H1755; first compound 0.4 µM) was 0.986 and the relative viability (NCI-H1755; first compound 1.265 µM) was 1.02. It also gave a relative viability (NCI-H1755; first compound 4 µM) of 1.15, a relative viability (HCC-366; first compound 0.04 µM) of 1.04 and a relative viability (HCC-366; first compound 0.1265 µM) of 1.04. The relative viability (HCC-366; first compound 0.4 µM) was 0.863, the relative viability (HCC-366; first compound 1.265 µM) was 1.08 and the relative viability (HCC-366; first compound 4 µM) was 1.29. It also gave a relative viability (LOU-NH91; first compound 0.04 µM) of 0.743, a relative viability (LOU-NH91; first compound 0.1265 µM) of 0.673 and a relative viability (LOU-NH91; first compound 0.4 µM) of 0.594. It also gave a relative viability (LOU-NH91; first compound 1.265 µM) of 0.592, a relative viability (LOU-NH91; first compound 4 µM) of 0.608 and a relative viability (NCI-H1793; first compound 0.1265 µM) of 0.655. It also gave a relative viability (NCI-H1793; first compound 0.4 µM) of 0.607, a relative viability (NCI-H1793; first compound 1.265 µM) of 0.762 and a relative viability (NCI-H1793; first compound 4 µM) of 0.77.

Source: the supplement of paper PMC10307832
